Assay results as given in patent US20060147511A1, “Liposomal glucocorticoids” (priority 2002, published 2006).

Columns and labels:
[1] = tested on: Antigen-induced arthritis; assay: Antigen-induced arthritis in rats, histological examination of joint inflammation and joint cartilage destruction; assay type: in vivo; conditions: for Degree of cartilage destruction / Degree of joint inflammation: 3.75 mg/kg intravenously 6, 24 and 48 hours after induction, scale 0: no changes, 6: massive changes compared to healthy knee
Experimental: (§1) Antigen-induced arthritis was provoked in test animals (rats) according to Buchner (“Behandlung der antigeninduzierten Arthritis der Ratte mit Anti-Makrophagenprinzipien und monoklonalen Anti-CD4 Antikörpern”, Ph.D. thesis 1996, Friedrich-Alexander University Erlangen-Nuremberg, Germany, p. 129).
(§2) Arthritis was provoked on day 0 according to Buchner by intra-articular injection of the antigen into the synovial gap in the right knee. The arthritic animals were treated intravenously with liposomal dexamethasone phosphate (formulation A, 3.75 mg/kg) 6, 24 and 48 hours after induction of arthritis. Free dexamethasone phosphate (formulation K, likewise 3.75 mg/kg) and physiological salt solution (saline) were used as controls. The effect of sample administration was established using the following parameters: • determination of joint swelling (cf., FIG. 1)
histological examination of inflammation parameters and of joint cartilage destruction parameters (cf. FIG. 2 and Table 2)
Degree of joint cartilage destruction and joint inflammation of arthritic animals after treatment
0: no changes compared to healthy knee
In analogy to Example 3, antigen-induced arthritis was provoked in the test animals. Arthritis was provoked on day 0 by intra-articular injection of the antigen into the synovial gap in the right knee. The arthritic animals were treated intravenously with liposomal dexamethasone phosphate (formulation B, C, 3.75 mg/kg each time, according to Table 4) 6, 24 and 48 hours after induction of arthritis. Free dexamethasone phosphate (formulation K, likewise 3.75 mg/kg) and physiological salt solution (saline) were used as controls. The effect of sample administration was established using the following parameters: • determination of joint swelling (cf., FIG. 5)
histological examination of inflammation parameters and of joint cartilage destruction parameters (cf., FIG. 2 and Table 5)

[2] = tested on: Antigen-induced arthritis; assay: Antigen-induced arthritis in rats, determination of joint swelling; assay type: in vivo; conditions: 0.375 mg per kg body weight
Experimental: as §1, §2
Arthritis was provoked in rats in analogy to Example 3, and the rats were treated with the following formulations containing only one tenth of the dexamethasone phosphate dose specified in Example 3:
In analogy to Example 3, antigen-induced arthritis was provoked in the test animals. Arthritis was provoked on day 0 by intra-articular injection of the antigen into the synovial gap in the right knee. […]

C[C@@H]1C[C@H]2[C@@H]3CCC4=CC(=O)C=C[C@]4(C)[C@@]3(F)[C@@H](O)C[C@]2(C)[C@@]1(O)C(=O)COP(=O)(O)O [Formulation K, dexamethasone phosphate]
Histological sections of arthritic knee joints (FIG. 2), finding ([1]; Hematoxylin/eosin staining, magnified 92fold): massive inflammation and destruction of cartilage and bone | Degree of cartilage destruction ([1]; Table 2, rats): 2.75 | Degree of joint inflammation ([1]; Table 2, rats): 3.5 | Degree of cartilage destruction ([1]; Table 5, rats): 2.75 | Degree of joint inflammation ([1]; Table 5, rats): 3.5 | Joint cartilage destruction and inflammatory reactions after treatment (in words) ([1]; rats, 3.75 mg/kg intravenously): considerably less effective | Suppression of antigen-induced arthritis [2]: developed all symptoms of the animal model after short amelioration
